This passage reports IC50 results from US12435058B2, “KIF18A inhibitors” (AMGEN INC., priority 2019, dated 2025).

Each structure is given as a SMILES string.

The target of the assay is T1, Recombinant human KIF18A (1-467 His-tagged) protein (Homo sapiens, UniProt Q8NI77).
T1 construct: Recombinant human KIF18A (1-467 His-tagged) protein; His; made in house
In words: KIF18A Enzyme Assay (microtubule-stimulated ATPase activity, ADP-Glo). The assay is classed as biochemical. To be noted: KIF18A protein 30 nM, ATP 75 μM (at Km), 30 μg/mL pig microtubules, ADP-Glo luminescence. The source says: For compounds in Table A, the following assay conditions were employed:
KIF18A Enzyme Assay: Microtubule-stimulated ATPase activity assay is used to measure KIF18A enzyme activity after treatment with compound. Compounds were 2-fold serially diluted in DMSO (Sigma Inc) over 22-point concentration range. Recombinant human KIF18A (1-467 His-tagged) protein was expressed using a baculovirus system and purified by affinity chromatography by Amgen Inc. Concentrations of KIF18A protein, microtubules (MT), and ATP in the reaction were optimized for standardized homogenous enzyme assay using ADP-Glom Kinase/ATPase Assay Kit (Promega Inc). The assay measures ADP formed from the ATPase reaction. […] Read luminescence using EnVision microplate reader with ultra-luminescence module (Perkin Elmer Inc). Concentration-response curve-fitting and IC50 determination was performed using Genedata Screener Software (Standard 15.0.1, Genedata Inc) with a four-parameter logistic regression fit model.
(In ADP-Glo the light output rises with the ADP produced.)

T1 sequence (Q8NI77 1-467): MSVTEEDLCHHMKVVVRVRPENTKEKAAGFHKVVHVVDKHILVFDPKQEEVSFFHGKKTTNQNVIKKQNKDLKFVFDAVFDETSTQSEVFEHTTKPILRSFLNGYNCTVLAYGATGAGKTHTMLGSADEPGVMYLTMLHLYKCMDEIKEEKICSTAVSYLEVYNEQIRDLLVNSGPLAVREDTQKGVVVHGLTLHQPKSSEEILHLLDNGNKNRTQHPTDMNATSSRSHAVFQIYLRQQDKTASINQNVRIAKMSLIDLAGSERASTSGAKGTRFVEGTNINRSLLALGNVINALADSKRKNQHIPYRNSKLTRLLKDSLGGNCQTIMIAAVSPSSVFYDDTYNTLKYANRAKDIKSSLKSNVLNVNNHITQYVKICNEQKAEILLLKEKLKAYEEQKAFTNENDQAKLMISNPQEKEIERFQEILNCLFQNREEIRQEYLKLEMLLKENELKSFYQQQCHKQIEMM
T1 sequence (P02550 whole entry partner): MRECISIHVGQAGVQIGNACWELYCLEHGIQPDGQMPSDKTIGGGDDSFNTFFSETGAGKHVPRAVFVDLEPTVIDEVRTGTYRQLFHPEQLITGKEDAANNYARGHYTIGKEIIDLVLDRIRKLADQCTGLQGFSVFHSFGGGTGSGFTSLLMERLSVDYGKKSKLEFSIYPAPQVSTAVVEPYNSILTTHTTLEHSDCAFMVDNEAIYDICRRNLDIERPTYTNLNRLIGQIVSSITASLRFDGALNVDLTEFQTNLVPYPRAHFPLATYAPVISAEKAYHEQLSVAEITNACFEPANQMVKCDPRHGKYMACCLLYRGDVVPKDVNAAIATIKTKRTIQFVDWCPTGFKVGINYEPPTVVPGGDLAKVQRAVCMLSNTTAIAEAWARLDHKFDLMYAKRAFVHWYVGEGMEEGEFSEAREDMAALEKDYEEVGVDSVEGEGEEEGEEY
T1 sequence (P02554 whole entry partner): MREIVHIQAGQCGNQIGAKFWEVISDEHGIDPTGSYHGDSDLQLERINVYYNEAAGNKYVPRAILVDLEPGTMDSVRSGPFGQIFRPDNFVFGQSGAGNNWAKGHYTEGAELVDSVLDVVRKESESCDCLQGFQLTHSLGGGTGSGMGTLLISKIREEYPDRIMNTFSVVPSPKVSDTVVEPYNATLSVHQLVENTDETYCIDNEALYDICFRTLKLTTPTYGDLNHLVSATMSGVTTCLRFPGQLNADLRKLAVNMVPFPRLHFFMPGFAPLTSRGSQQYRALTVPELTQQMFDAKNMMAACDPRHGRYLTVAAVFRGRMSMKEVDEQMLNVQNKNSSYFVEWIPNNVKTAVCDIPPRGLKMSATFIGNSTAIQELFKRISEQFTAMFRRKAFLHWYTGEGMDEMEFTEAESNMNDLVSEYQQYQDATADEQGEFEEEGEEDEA

With `CC(C)(CO)Nc1cnc(C(=O)Nc2cccc(S(=O)(=O)[C@H]3CCC(F)(F)C3)c2)c(N2CCC3(CC2)CC3)n1` (single isomer, unassigned) [Example 102-1], the 50% inhibitory concentration (IC50) stood at 67 nM. With `CC(C)(CO)Nc1cnc(C(=O)Nc2cccc(S(=O)(=O)[C@@H]3CCC(F)(F)C3)c2)c(N2CCC3(CC2)CC3)n1` (single isomer, unassigned) [Example 102-2] the figure was 111 nM; with `CC(C)(C)NS(=O)(=O)c1cccc(NC(=O)c2ncc([C@@](C)(O)C(F)(F)F)nc2N2CCC3(CC2)CC3)c1` (single isomer, unassigned) [Example 105-1], 174 nM; with `CC(C)(C)NS(=O)(=O)c1cccc(NC(=O)c2ncc([C@](C)(O)C(F)(F)F)nc2N2CCC3(CC2)CC3)c1` (single isomer, unassigned) [Example 105-2], 356 nM.

In the case of `CC(C)(C)NS(=O)(=O)c1cccc(NC(=O)c2ncc(NC(C)(C)CO)nc2N2CCC3(CC2)CC3)c1` [Example 100, N-(3-(N-(tert-Butyl)sulfamoyl)phenyl)-5-((1-hydroxy-2-methylpropan-2-yl)amino)-3-(6-azaspiro[2.5]octan-6-yl)pyrazine-2-carboxamide], the IC50 was 82 nM. With `CC1CCN(c2nc(NC(C)(C)CO)cnc2C(=O)Nc2cccc(S(=O)(=O)NC(C)(C)C)c2)CC1` [Example 100-1, N-(3-(N-(tert-butyl)sulfamoyl)phenyl)-5-((1-hydroxy-2-methylpropan-2-yl)amino)-3-(4-methylpiperidin-1-yl)pyrazine-2-carboxamide] the figure was 177 nM; with `CC(C)(C)NS(=O)(=O)c1cccc(NC(=O)c2ncc(NC(C)(C)CO)nc2N2CCC(F)(F)CC2)c1` [Example 100-2, N-(3-(N-(tert-butyl)sulfamoyl)phenyl)-3-(4,4-difluoropiperidin-1-yl)-5-((1-hydroxy-2-methylpropan-2-yl)amino)pyrazine-2-carboxamide], 342 nM; with `CC(C)(C)NS(=O)(=O)c1cccc(NC(=O)c2ncc(NC(C)(C)CO)nc2N2CCC(C(F)(F)F)CC2)c1` [Example 100-3, N-(3-(N-(tert-butyl)sulfamoyl)phenyl)-5-((1-hydroxy-2-methylpropan-2-yl)amino)-3-(4-(trifluoromethyl)piperidin-1-yl)pyrazine-2-carboxamide], 455 nM. In the case of `CCC1CCN(c2nc(NC(C)(C)CO)cnc2C(=O)Nc2cccc(S(=O)(=O)NC(C)(C)C)c2)CC1` [Example 100-4, N-(3-(N-(tert-butyl)sulfamoyl)phenyl)-3-(4-ethylpiperidin-1-yl)-5-((1-hydroxy-2-methylpropan-2-yl)amino)pyrazine-2-carboxamide], the IC50 came to 133 nM. The figure for `CC1(C)CCN(c2nc(NC(C)(C)CO)cnc2C(=O)Nc2cccc(S(=O)(=O)NC(C)(C)C)c2)CC1` [Example 100-5, N-(3-(N-(tert-butyl)sulfamoyl)phenyl)-3-(4,4-dimethylpiperidin-1-yl)-5-((1-hydroxy-2-methylpropan-2-yl)amino)pyrazine-2-carboxamide] is 190 nM; for `CC(C)C1CCN(c2nc(NC(C)(C)CO)cnc2C(=O)Nc2cccc(S(=O)(=O)NC(C)(C)C)c2)CC1` [Example 100-6, N-(3-(N-(tert-butyl)sulfamoyl)phenyl)-5-((1-hydroxy-2-methylpropan-2-yl)amino)-3-(4-isopropylpiperidin-1-yl)pyrazine-2-carboxamide] it is 319 nM; for `CC(C)(C)NS(=O)(=O)c1cccc(NC(=O)c2ncc(NC(C)(C)CO)nc2N2CCC(C(C)(C)C)CC2)c1` [Example 100-7, 3-(4-(tert-butyl)piperidin-1-yl)-N-(3-(N-(tert-butyl)sulfamoyl)phenyl)-5-((1-hydroxy-2-methylpropan-2-yl)amino)pyrazine-2-carboxamide] it is 788 nM. The figure for `CCC(C)C1CCN(c2nc(NC(C)(C)CO)cnc2C(=O)Nc2cccc(S(=O)(=O)NC(C)(C)C)c2)CC1` (stereo not drawn) [Example 100-8, 3-(4-(sec-butyl)piperidin-1-yl)-N-(3-(N-(tert-butyl)sulfamoyl)phenyl)-5-((1-hydroxy-2-methylpropan-2-yl)amino)pyrazine-2-carboxamide] is 163 nM; for `CCCC1CCN(c2nc(NC(C)(C)CO)cnc2C(=O)Nc2cccc(S(=O)(=O)NC(C)(C)C)c2)CC1` [Example 100-9, N-(3-(N-(tert-butyl)sulfamoyl)phenyl)-5-((1-hydroxy-2-methylpropan-2-yl)amino)-3-(4-propylpiperidin-1-yl)pyrazine-2-carboxamide] it is 118 nM. The figure for `CC(C)(C)NS(=O)(=O)c1cccc(NC(=O)c2ncc(NC(C)(C)CO)nc2N2CCC(C3CC3)CC2)c1` [Example 100-10, N-(3-(N-(tert-butyl)sulfamoyl)phenyl)-3-(4-cyclopropylpiperidin-1-yl)-5-((1-hydroxy-2-methylpropan-2-yl)amino)pyrazine-2-carboxamide] is 221 nM; for `COCC1CCN(c2nc(NC(C)(C)CO)cnc2C(=O)Nc2cccc(S(=O)(=O)NC(C)(C)C)c2)CC1` [Example 100-11, N-(3-(N-(tert-butyl)sulfamoyl)phenyl)-5-((1-hydroxy-2-methylpropan-2-yl)amino)-3-(4-(methoxymethyl)piperidin-1-yl)pyrazine-2-carboxamide] it is 1390 nM; for `CC(C)(C)NS(=O)(=O)c1cccc(NC(=O)c2ncc(NC(C)(C)CO)nc2N2CC3(CCC3)C2)c1` [Example 100-12, N-(3-(N-(tert-butyl)sulfamoyl)phenyl)-5-((1-hydroxy-2-methylpropan-2-yl)amino)-3-(2-azaspiro[3.3]heptan-2-yl)pyrazine-2-carboxamide] it is 931 nM.

In the case of `CC(C)(C)NS(=O)(=O)c1cccc(NC(=O)c2ncc(NC(C)(C)CO)nc2N2CC3(CCCCC3)C2)c1` [Example 100-13, N-(3-(N-(tert-butyl)sulfamoyl)phenyl)-5-((1-hydroxy-2-methylpropan-2-yl)amino)-3-(2-azaspiro[3.5]nonan-2-yl)pyrazine-2-carboxamide], the half-inhibitory concentration (IC50) came out at 410 nM.

`CC(C)(C)NS(=O)(=O)c1cccc(NC(=O)c2ncc(NC(C)(C)CO)nc2N2CCC3(CCOCC3)CC2)c1` [Example 100-14, N-(3-(N-(tert-butyl)sulfamoyl)phenyl)-5-((1-hydroxy-2-methylpropan-2-yl)amino)-3-(3-oxa-9-azaspiro[5.5]undecan-9-yl)pyrazine-2-carboxamide]: the IC50 amounted to 1380 nM. The figure for `CC(C)(C)NS(=O)(=O)c1cccc(NC(=O)c2ncc(NC(C)(C)CO)nc2N2CCC3(CCC3)CC2)c1` [Example 100-15, N-(3-(N-(tert-butyl)sulfamoyl)phenyl)-5-((1-hydroxy-2-methylpropan-2-yl)amino)-3-(7-azaspiro[3.5]nonan-7-yl)pyrazine-2-carboxamide] is 77 nM; for `CC(C)(C)NS(=O)(=O)c1cccc(NC(=O)c2ncc(NC(C)(C)CO)nc2N2CCC3(CC2)CC(F)(F)C3)c1` [Example 100-16, N-(3-(N-(tert-butyl)sulfamoyl)phenyl)-3-(2,2-difluoro-7-azaspiro[3.5]nonan-7-yl)-5-((1-hydroxy-2-methylpropan-2-yl)amino)pyrazine-2-carboxamide] it is 215 nM. With `CC(C)(C)NS(=O)(=O)c1cccc(NC(=O)c2ncc(NC(C)(C)CO)nc2N2CCC3(CCCC3)CC2)c1` [Example 100-17, N-(3-(N-(tert-butyl)sulfamoyl)phenyl)-5-((1-hydroxy-2-methylpropan-2-yl)amino)-3-(8-azaspiro[4.5]decan-8-yl)pyrazine-2-carboxamide] the figure was 129 nM; with `Cc1cc(NC(=O)c2ncc(NC(C)(C)CO)nc2N2CCC3(CC2)CC3)cc(S(=O)(=O)NC(C)(C)C)c1` [Example 101, N-(3-(N-(tert-Butyl)sulfamoyl)-5-methylphenyl)-5-((1-hydroxy-2-methylpropan-2-yl)amino)-3-(6-azaspiro[2.5]octan-6-yl)pyrazine-2-carboxamide], 231 nM. The figure for `CC(C)(CO)Nc1cnc(C(=O)Nc2cccc(S(=O)(=O)C(C)(C)C(F)(F)F)c2)c(N2CCC3(CC2)CC3)n1` [Example 101-1, 5-((1-hydroxy-2-methylpropan-2-yl)amino)-3-(6-azaspiro[2.5]octan-6-yl)-N-(3-((1,1,1-trifluoro-2-methylpropan-2-yl)sulfonyl)phenyl)pyrazine-2-carboxamide] is 108 nM. For the molecule `CC(C)(CO)Nc1cnc(C(=O)Nc2cccc(S(=O)(=O)C(C)(C)C)c2)c(N2CCC3(CC2)CC3)n1` [Example 101-2, N-(3-(tert-butylsulfonyl)phenyl)-5-((1-hydroxy-2-methylpropan-2-yl)amino)-3-(6-azaspiro[2.5]octan-6-yl)pyrazine-2-carboxamide], the IC50 was found to be 218 nM. The figure for `CC(C)(CO)Nc1cnc(C(=O)Nc2cccc(S(=O)(=O)C3(C)CCC3)c2)c(N2CCC3(CC2)CC3)n1` [Example 101-3, 5-((1-hydroxy-2-methylpropan-2-yl)amino)-N-(3-((1-methylcyclobutyl)sulfonyl)phenyl)-3-(6-azaspiro[2.5]octan-6-yl)pyrazine-2-carboxamide] is 204 nM; for `CC(C)(C)NS(=O)(=O)c1cc(F)cc(NC(=O)c2ncc(NC(C)(C)CO)nc2N2CCC3(CC2)CC3)c1` [Example 101-4, N-(3-(N-(tert-butyl)sulfamoyl)-5-fluorophenyl)-5-((1-hydroxy-2-methylpropan-2-yl)amino)-3-(6-azaspiro[2.5]octan-6-yl)pyrazine-2-carboxamide] it is 172 nM.

A word on the IC50: it is the concentration that inhibits the measured activity by half.
